In US20190345138A1, “HETEROCYCLIC AMIDES AS KINASE INHIBITORS” (GlaxoSmithKline Intellectual Property Development Limited, priority 2016, published 2019):
Several values for one entry are separate records, joined by “and”; a condition that tells them apart may be missing. Identical values can stand only once.

Key:
[1] = system: human monocytic leukemia U937 cells; test: necroptosis assay in U937 cells; type: cell-based; conditions: Homo sapiens, U-937, U937 cells; viability by cellular ATP (Cell Titer-Glo); read-out: pIC50, inhibited necrosis in U937 cells (converted)
Protocol: The efficacy of RIP1 inhibitors can be tested […] in vitro using a human monocytic leukemia U937 or mouse L929 fibrosarcoma cells in a necroptosis assay. As determined using the method described in S. He et al., Cell, 137(6):1100-1111 (2009) and International Patent Appln. No. PCT/IB2014/059004, now, International Patent Appln. Pub.
Viability was measured by quantitating cellular levels of ATP using the Cell Titer-Glo kit. All data are means±standard deviation of the mean.

RIP1 kinase = target: T1, RIP1 kinase (Homo sapiens, UniProt Q13546); test: fluorescent polarization based binding assay; conditions: mean of a minimum of 2 experiments
T1 sequence (Q13546 1-375 limits assumed): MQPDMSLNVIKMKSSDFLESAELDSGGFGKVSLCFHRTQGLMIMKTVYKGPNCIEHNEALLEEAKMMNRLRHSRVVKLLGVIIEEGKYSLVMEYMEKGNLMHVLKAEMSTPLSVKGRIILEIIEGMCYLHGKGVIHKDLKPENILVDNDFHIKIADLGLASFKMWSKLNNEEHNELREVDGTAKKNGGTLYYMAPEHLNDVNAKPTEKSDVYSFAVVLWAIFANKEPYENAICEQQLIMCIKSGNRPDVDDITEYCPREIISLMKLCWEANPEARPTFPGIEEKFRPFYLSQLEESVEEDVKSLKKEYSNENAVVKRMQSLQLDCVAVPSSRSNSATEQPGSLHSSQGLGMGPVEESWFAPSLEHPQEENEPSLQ
Excerpt: A fluorescent polarization based binding assay was used to assess the activity of the compounds of this invention, the details of which are disclosed in International Patent Appln. No. PCT/IB2014/059004, now, International Patent Appln. Pub.

| Compound | IC50 [1] [nM] | IC50 (RIP1 kinase) |
| --- | --- | --- |
| O=C(C1CCN(c2cc(C(F)(F)F)ncn2)CC1)N1N=CC[C@H]1c1ccccc1 [Example 51, (S)-(5-phenyl-4,5-dihydro-1H-pyrazol-1-yl)(1-(6-(trifluoromethyl)pyrimidin-4-yl)piperidin-4-yl)methanone] | 1 to 100 | 1 to 31.6 nM |
| N#Cc1cncc(N2CCC(C(=O)N3N=CC[C@H]3c3ccccc3)CC2)n1 [Example 47, (S)-6-(4-(5-phenyl-4,5-dihydro-1H-pyrazole-1-carbonyl)piperidin-1-yl)pyrazine-2-carbonitrile] | 1 to 100 | 1 to 31.6 nM |
| COc1cnc(N2CCC(C(=O)N3N=CCC3c3ccccc3)CC2)nc1 (racemic) [Example 7, (1-(5-methoxypyrimidin-2-yl)piperidin-4-yl)(5-phenyl-4,5-dihydro-1H-pyrazol-1-yl)methanone] | 1 to 100 | 1 to 31.6 nM |
| O=C(C1CCN(c2cnc3ccccc3n2)CC1)N1N=CC[C@H]1c1ccccc1 [Example 39, (S)-(5-phenyl-4,5-dihydro-1H-pyrazol-1-yl)(1-(quinoxalin-2-yl)piperidin-4-yl)methanone] | 1 to 100 | 1 to 31.6 nM and 1 to 10 nM |
| O=C(C1CCN(c2ccn3nccc3n2)CC1)N1N=CC[C@H]1c1cncc(F)c1 [Example 116, (S)-(5-(5-fluoropyridin-3-yl)-4,5-dihydro-1H-pyrazol-1-yl)(1-(pyrazolo[1,5-a]pyrimidin-5-yl)piperidin-4-yl)methanone] | 1 to 100 | 1 to 31.6 nM |
| NC(=O)c1ncnc(N2CCC(C(=O)N3N=CC[C@H]3c3cc(F)cc(F)c3)CC2)c1F [Example 165, (S)-6-(4-(5-(3,5-difluorophenyl)-4,5-dihydro-1H-pyrazole-1-carbonyl)piperidin-1-yl)-5-fluoropyrimidine-4-carboxamide] | 1 to 100 | 1 to 31.6 nM and 1 to 10 nM |
| N#Cc1cccc([C@@H]2CC=NN2C(=O)C2CCN(c3ncc(F)c(N)n3)CC2)c1 [Example 72, (S)-3-(1-(1-(4-amino-5-fluoropyrimidin-2-yl)piperidine-4-carbonyl)-4,5-dihydro-1H-pyrazol-5-yl)benzonitrile] | 1 to 100 | 1 to 31.6 nM |
| COc1ccnc(N2CCC(C(=O)N3N=CC[C@H]3c3cccc(C#N)c3)CC2)n1 [Example 69, (S)-3-(1-(1-(4-methoxypyrimidin-2-yl)piperidine-4-carbonyl)-4,5-dihydro-1H-pyrazol-5-yl)benzonitrile] | 1 to 100 | 1 to 31.6 nM and 1 to 10 nM |
| NC(=O)c1nc(N2CCC(C(=O)N3N=CC[C@H]3c3cncc(F)c3)CC2)ncc1F [Example 161, (S)-5-fluoro-2-(4-(5-(5-fluoropyridin-3-yl)-4,5-dihydro-1H-pyrazole-1-carbonyl)piperidin-1-yl)pyrimidine-4-carboxamide] | 1 to 100 | 1 to 31.6 nM |
| CSc1nc(N)cc(N2CCC(C(=O)N3N=CC[C@H]3c3ccccc3)CC2)n1 [Example 60, (S)-(1-(6-amino-2-(methylthio)pyrimidin-4-yl)piperidin-4-yl)(5-phenyl-4,5-dihydro-1H-pyrazol-1-yl)methanone] | 1 to 100 | 1 to 31.6 nM |
| Nc1nc(N2CCC(C(=O)N3N=CC[C@H]3c3cncc(F)c3)CC2)ncc1F [Example 112, (S)-(1-(4-amino-5-fluoropyrimidin-2-yl)piperidin-4-yl)(5-(5-fluoropyridin-3-yl)-4,5-dihydro-1H-pyrazol-1-yl)methanone] | 1 to 100 | 1 to 31.6 nM |
| COc1nc(N)cc(N2CCC(C(=O)N3N=CC[C@H]3c3ccccc3)CC2)n1 [Example 35, (S)-(1-(6-amino-2-methoxypyrimidin-4-yl)piperidin-4-yl)(5-phenyl-4,5-dihydro-1H-pyrazol-1-yl)methanone] | 1 to 100 | 1 to 31.6 nM |
| CSc1nccc(N2CCC(C(=O)N3N=CC[C@H]3c3ccccc3)CC2)n1 [Example 45, (S)-(1-(2-(methylthio)pyrimidin-4-yl)piperidin-4-yl)(5-phenyl-4,5-dihydro-1H-pyrazol-1-yl)methanone] | 1 to 100 | 1 to 31.6 nM and 1 to 10 nM |
| O=C(O)c1ncnc(N2CCC(C(=O)N3N=CC[C@H]3c3cc(F)cc(F)c3)CC2)c1F [Example 164, (S)-6-(4-(5-(3,5-difluorophenyl)-4,5-dihydro-1H-pyrazole-1-carbonyl)piperidin-1-yl)-5-fluoropyrimidine-4-carboxylic acid] | 1 to 100 | 1 to 31.6 nM |
| COc1ccc(N2CCC(C(=O)N3N=CC[C@H]3c3ccccc3)CC2)nn1 [Example 49, (S)-(1-(6-methoxypyridazin-3-yl)piperidin-4-yl)(5-phenyl-4,5-dihydro-1H-pyrazol-1-yl)methanone] | 1 to 100 | 1 to 31.6 nM |
| N#Cc1nccc(N2CCC(C(=O)N3N=CC[C@H]3c3ccccc3)CC2)n1 [Example 18, (S)-4-(4-(5-phenyl-4,5-dihydro-1H-pyrazole-1-carbonyl)piperidin-1-yl)pyrimidine-2-carbonitrile] | 1 to 100 | 1 to 31.6 nM and 1 to 10 nM |
| CC(=O)Nc1cncc(N2CCC(C(=O)N3N=CC[C@H]3c3ccccc3)CC2)n1 [Example 64, (S)-N-(6-(4-(5-phenyl-4,5-dihydro-1H-pyrazole-1-carbonyl)piperidin-1-yl)pyrazin-2-yl)acetamide] | 1 to 100 | 1 to 31.6 nM and 1 to 10 nM |
| N#Cc1cncnc1N1CCC(C(=O)N2N=CC[C@H]2c2cc(F)cc(F)c2)CC1 [Example 88, (S)-4-(4-(5-(3,5-difluorophenyl)-4,5-dihydro-1H-pyrazole-1-carbonyl)piperidin-1-yl)pyrimidine-5-carbonitrile] | 1 to 100 | 1 to 31.6 nM |
| NC(=O)c1coc(N2CCC(C(=O)N3N=CC[C@H]3c3cc(F)cc(F)c3)CC2)n1 [Example 134, (S)-2-(4-(5-(3,5-difluorophenyl)-4,5-dihydro-1H-pyrazole-1-carbonyl)piperidin-1-yl)oxazole-4-carboxamide] | 1 to 100 | 1 to 31.6 nM |
| COc1ccnc(N2CCC(C(=O)N3N=CCC3c3ccccc3)CC2)n1 (racemic) [Example 3, (1-(4-methoxypyrimidin-2-yl)piperidin-4-yl)(5-phenyl-4,5-dihydro-1H-pyrazol-1-yl)methanone] | 1 to 100 | 1 to 31.6 nM |
| NC(=O)Cc1nc(N2CCC(C(=O)N3N=CC[C@H]3c3ccccc3)CC2)ncc1F [Example 169, (S)-2-(5-fluoro-2-(4-(5-phenyl-4,5-dihydro-1H-pyrazole-1-carbonyl)piperidin-1-yl)pyrimidin-4-yl)acetamide] | 1 to 100 | 1 to 31.6 nM and 1 to 10 nM |
| C#Cc1cc(N2CCC(C(=O)N3N=CC[C@H]3c3cccc(C#N)c3)CC2)ncn1 [Example 158, (S)-3-(1-(1-(6-ethynylpyrimidin-4-yl)piperidine-4-carbonyl)-4,5-dihydro-1H-pyrazol-5-yl)benzonitrile] | 1 to 100 | 1 to 31.6 nM |
| CCOc1ccnc(N2CCC(C(=O)N3N=CC[C@H]3c3ccccc3)CC2)n1 [Example 58, (S)-(1-(4-ethoxypyrimidin-2-yl)piperidin-4-yl)(5-phenyl-4,5-dihydro-1H-pyrazol-1-yl)methanone] | 1 to 100 | 1 to 31.6 nM and 1 to 10 nM |
| N#Cc1coc(N2CCC(C(=O)N3N=CC[C@H]3c3ccccc3)CC2)n1 [Example 137, (S)-2-(4-(5-phenyl-4,5-dihydro-2H-pyrazole-1-carbonyl)piperidin-1-yl)oxazole-4-carbonitrile] | 1 to 100 | 1 to 31.6 nM and 1 to 10 nM |
| CNC(=O)c1csc(N2CCC(C(=O)N3N=CC[C@H]3c3ccccc3)CC2)n1 [Example 54, (S)-N-methyl-2-(4-(5-phenyl-4,5-dihydro-1H-pyrazole-1-carbonyl)piperidin-1-yl)thiazole-4-carboxamide] | 1 to 100 | 1 to 31.6 nM |
| Nc1nccc(N2CCC(C(=O)N3N=CC[C@H]3c3cc(F)cc(F)c3)CC2)n1 [Example 84, (S)-(1-(2-aminopyrimidin-4-yl)piperidin-4-yl)(5-(3,5-difluorophenyl)-4,5-dihydro-1H-pyrazol-1-yl)methanone] | 1 to 100 | 1 to 31.6 nM |
| COc1nccc(N2CCC(C(=O)N3N=CC[C@H]3c3ccccc3)CC2)n1 [Example 17, (S)-(1-(2-methoxypyrimidin-4-yl)piperidin-4-yl)(5-phenyl-4,5-dihydro-1H-pyrazol-1-yl)methanone] | 1 to 100 | 1 to 31.6 nM and 1 to 10 nM |
| Cc1nc(N)cc(N2CCC(C(=O)N3N=CC[C@H]3c3ccccc3)CC2)n1 [Example 33, (S)-(1-(6-amino-2-methylpyrimidin-4-yl)piperidin-4-yl)(5-phenyl-4,5-dihydro-1H-pyrazol-1-yl)methanone] | 1 to 100 | 1 to 31.6 nM |
| CNc1nccc(N2CCC(C(=O)N3N=CC[C@H]3c3ccccc3)CC2)n1 [Example 15, (S)-(1-(2-(methylamino)pyrimidin-4-yl)piperidin-4-yl)(5-phenyl-4,5-dihydro-1H-pyrazol-1-yl)methanone] | 1 to 100 | 1 to 31.6 nM and 1 to 10 nM |
